According to patent US20190359653A1, “SELECTIVE PEPTIDE INHIBITORS OF FRIZZLED” (Genentech, Inc., priority 2016, published 2019):

Tested on: Wnt3a-mediated β-catenin signaling in HEK293-TB cells
Type: cell-based

## LPSDDAEFWCHVMY [dFz7-21-L6A]
  reduction in cellular potency: ~800 fold
